Assay results taken from PubChem BioAssay (NCI).
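How tested: cells in 96-well plates exposed to compound for 48 hours at five concentrations. Abbreviation: GI50, concentration required for 50% inhibition of growth. TGI is the concentration that stops growth completely.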

Legend:
Test in all cases: inhibition of tumour cell growth, NCI panel, 48 h
[1] = tested on: RXF 393 renal
[2] = tested on: A498 renal
[3] = tested on: K-562 leukemia
[4] = tested on: U251 CNS
[5] = tested on: UACC-62 melanoma
[6] = tested on: HT29 colon
[7] = tested on: UO-31 renal
[8] = tested on: IGROV1 ovarian
[9] = tested on: HCT-116 colon
[10] = tested on: NCI-H23 lung

| SMILES | GI50 [1] [µM] | TGI [1] [µM] | GI50 [2] [µM] | TGI [2] [µM] | GI50 [3] [µM] | TGI [3] [µM] | GI50 [4] [µM] | TGI [4] [µM] | GI50 [5] [µM] | TGI [5] [µM] | GI50 [6] [µM] | TGI [6] [µM] | GI50 [7] [µM] | TGI [7] [µM] | GI50 [8] [µM] | TGI [8] [µM] | GI50 [9] [µM] | TGI [9] [µM] | GI50 [10] [µM] | TGI [10] [µM] |
| --- | --- | --- | --- | --- | --- | --- | --- | --- | --- | --- | --- | --- | --- | --- | --- | --- | --- | --- | --- | --- |
| CC(=O)c1cc2c(c3ccsc13)-c1ccccc1CC2 | 28.6 | > 100 | 17.2 | 67.8 | 14.3 | 90.5 | 34.7 | > 100 | 7.71 | > 100 | 58.4 | > 100 | 26.6 | 85.2 | 36 | > 100 | 20.3 | > 100 | 28.1 | 95.6 |
| C1=C(c2ccccc2)C(c2ccc(OCCN3CCCCC3)cc2)Oc2ccccc21 (stereo not drawn) | 1.61 | 3.11 | 1.67 | 3.17 | 1.53 | 3.38 | 1.65 | 3.18 | 1.92 | 3.68 | 1.76 | 3.86 | 1.41 | 3.16 | 2.07 | 5.07 | 1.7 | 3.07 | 2.29 | 6.3 |
| O=C(O)c1cc(Cc2ccc(O)c(C(=O)O)c2)ccc1O (tested in a mixture with another compound) | 0.25 | 1.37 | 5.68 | 21.9 | 2.38 | > 100 | 9.44 | 27.7 | 4.73 | 19.9 | 2.98 | 10.4 | 3.99 | 19.9 | 4.72 | 20.6 | 3.67 | 14.2 | 5.31 | 20 |
| COC(=O)C1(C2CC/C(C)=C/CC/C(C)=C/CC[C@@]3(C)O[C@@H]3C2)CC1 (stereo partly drawn) | > 38.2 | > 100 | > 100 | > 100 | 29.1 | 99.6 | 39.1 | > 100 | > 100 | > 100 | 68.1 | > 100 | 26.6 | > 56.3 | 30.3 | > 72 | 33 | > 100 | 46.1 | > 100 |
| CC(=O)OC1CCC2(C)C(=CCC3C4CCC5(OC6CC(C)CN(C(C)=O)C6C5C)C(C)=C4C(=O)C32)C1 (stereo not drawn) | – | 32.2 | – | 31.2 | – | 52.7 | – | 30.8 | – | 18.5 | – | 43.8 | – | 81.4 | – | 29.1 | – | 36.7 | – | 29.6 |
| CO[C@@]12C[C@H]3[C@@H]([C@@H](O)[C@@H](OC(=O)/C=C/c4ccccc4)[C@@]4(O)C(C)(C)CCC[C@]34C)[C@@H](C)C1=CC(=O)O2 | 1.33 | 7.93 | 11.3 | 26.3 | 12.5 | > 100 | 3.29 | 13.7 | 1.55 | 5.62 | 4.6 | 26.5 | 16.6 | > 100 | 29.5 | > 100 | 8.8 | > 100 | 13.5 | 42.2 |
| Cc1ccc(C2C3=C(N=c4s/c(=C/c5ccc(Br)cc5)c(=O)n42)c2ccc4ccccc4c2OCC3)cc1 (stereo not drawn) | > 100 | > 100 | > 100 | > 100 | > 100 | > 100 | > 100 | > 100 | 67.9 | > 100 | 67.8 | > 100 | > 100 | > 100 | > 100 | > 100 | > 100 | > 100 | > 100 | > 100 |
| Cc1ccc2c(c1)O/C(=C\c1ccc([N+](=O)[O-])o1)C2=O | 1.34 | 2.74 | 3.77 | 18.6 | 0.388 | 2.04 | 1.82 | 3.98 | 1.6 | 3.5 | 0.659 | 2.08 | 1.18 | 3.46 | 1.42 | 4.69 | 0.373 | 1.32 | 1.94 | 4.82 |
| C1=C(c2ccccc2)SC=C(c2ccccc2)S1 | – | 48.1 | – | > 100 | – | 89.3 | – | > 100 | – | > 100 | – | 75.1 | – | > 100 | – | > 100 | – | > 100 | – | > 100 |
| Oc1c(I)cc(-c2nc3ccccc3s2)cc1CN(Cc1ccccn1)Cc1ccccn1 | 1.08 | 5.61 | 0.484 | 4.81 | 0.385 | > 100 | 0.267 | 12.9 | 0.207 | 0.563 | 0.668 | 27.6 | 0.272 | 2.35 | 0.517 | 9.06 | 0.494 | 12.4 | 0.866 | > 100 |
| N#CC(C(=N/NC(N)=S)/C(=N/NC(N)=S)C(C#N)c1ccc(Cl)cc1)c1ccc(Cl)cc1 (stereo not drawn) | – | > 100 | – | > 100 | – | > 100 | – | > 100 | – | > 100 | – | > 100 | – | > 100 | – | > 100 | – | > 100 | – | > 100 |
| CCOC(=O)N[C@H]1CCc2c(Br)c(OC)c(OC)c(OC)c2-c2ccc(SC)c(=O)cc21 | < 0.01 | 13.8 | < 0.01 | < 0.0115 | < 0.01 | > 38.2 | < 0.01 | 14.1 | < 0.01 | 14.2 | < 0.01 | > 34.5 | 0.131 | 15.2 | 0.0189 | 16.2 | < 0.01 | 11.8 | < 0.01 | 24 |
| COc1cc(-c2cc(/C=C3\C(=O)Nc4ccccc43)[nH]n2)cc(OC)c1OC | 8.83 | 22.5 | 2.5 | 7.71 | 2.65 | 11.5 | 3.63 | 19.6 | 1.63 | 4.22 | 3.15 | 17.7 | 1.91 | 12.2 | 3.14 | 14.8 | 2.74 | 11.1 | 2.78 | 8.95 |
| COc1ccc(/C=C(/C)[N+](=O)[O-])cc1 | – | 3.16 | – | 8.28 | – | 16 | – | 3.05 | – | 3.29 | – | 11.9 | – | 3.15 | – | 6.2 | – | 3.14 | – | 4.35 |
| NC(=S)N/N=C\c1nccc2c(N)cccc12 | 0.248 | 17.1 | 0.172 | 1.02 | 0.497 | > 100 | 0.237 | – | 0.264 | 1.94 | 0.454 | > 100 | 0.298 | 1.24 | 0.219 | – | 0.356 | > 46 | 0.224 | > 94.8 |
